Data reported in patent US9944607B2, “Thiohydantoin derivatives and uses thereof” (Whitehead Institute for Biomedical Research, priority 2012, dated 2018).
Converted amounts (≈) assume the structure as drawn. Where two headings read alike, the source gives them in different places.

Assays:
[1] = system: NIH-3T3 mammalian fibroblasts; experiment: Counterscreen mammalian cell toxicity assay (Alamar Blue); type: cell-based, murine; details: n = 1, 48 hours, tested up to 26 μM
Procedure: Quiescent murine fibroblasts were subjected to incubation with compounds of interest for 48 hours. Subsequent cell viability was determined via measuring Alamar Blue fluorescence.
Procedures • After overnight culture, pin compounds into wells at 100 nL/well using the CyBio CyBi-Well pinning instrument. • Return the plates to the tissue culture incubator and incubate the culture for an additional 48 hours at 37° C. under 5% CO2. • At the completion of this incubation, add Alamar Blue solution diluted 1:40 in PBS to each well (10 μL/well) to achieve a final dilution of 1:200. • Incubate the plates for an additional 2-3 hours at 37° C. under 5% CO2. • Read the Relative Fluorescence Intensity (RFU) of wells on a standard plate reader as a measure of relative cell growth. […] 4.4.

[2] = system: Candida albicans CaCi-17; experiment: Primary assay: C. albicans CaCi-17 growth inhibition (Alamar Blue); type: cell-based; details: n = 3, 48 hours, tested up to 26 μM
[3] = Solubility in PBS pH 7.4 with 1% DMSO; details: for solubility at 24 h: phosphate buffered saline with 1% DMSO, pH 7.4, aqueous buffer, kinetic from dmso stock
Procedure: Solubility was determined in phosphate buffered saline (PBS) pH 7.4 with 1% DMSO. Each compound was prepared in duplicate at 100 μM in both 100% DMSO and PBS with 1% DMSO. Compounds were allowed to equilibrate at room temperature with a 250 rpm orbital shake for 24 hours. After equilibration, samples were analyzed by UPLC-MS (Waters, Milford, Mass.) with compounds detected by SIR detection on a single quadrupole mass spectrometer. The DMSO samples were used to create a two-point calibration curve to which the response in PBS was fit.

[4] = system: Candida albicans CaCi-2; experiment: Primary assay: C. albicans CaCi-2 growth inhibition (Alamar Blue); type: cell-based; details: n = 3, 48 hours, tested up to 26 μM; for IC50: read-out: Growth Inhibition Activity, IC50 (μM), C. albicans (n = 3) CaCi-2
[5] = Table 4, PBS pH 7.4 with 1% DMSO, 24 hours, room temperature
[6] = Table 3, PBS pH 7.4 with 1% DMSO, 24 hours, room temperature

CCOC(=O)N1C(=O)C2(CCCCC2)N(c2ccc(C(C)C)cc2)C1=S [compound 56604817]
IC50 ([1]; read-out: Growth Inhibition Activity, IC50 (μM), 3T3 Fibroblasts (n = 1), Table 4): 13.8 µM
Growth Inhibition Activity, IC50 (μM), C. albicans (n = 3) CaCi-17 ([2]; Table 4): inactive
PBS Solubility [3, 5]: <1.0 µM
Growth Inhibition Activity, IC50 (μM), C. albicans (n = 3) CaCi-2 ([4]; Table 4): inactive

CCOC(=O)N1C(=O)C2(CCCC2)N(c2ccc(C)cc2)C1=S [compound 56604843]
Growth Inhibition Activity, IC50 (μM), 3T3 Fibroblasts (n = 1) ([1]; Table 5): Inactive
Growth Inhibition Activity, IC50 (μM), C. albicans (n = 3) CaCi-17 ([2]; Table 5): inactive
PBS Solubility ([3]; pH 7.4): 9.2 µM
IC50 ([4]; Table 5): 9.8 µM

Cc1ccc(N2C(=S)NC(=O)C23CCC3)cc1 [compound 56604811]
Growth Inhibition Activity, IC50 (μM), 3T3 Fibroblasts (n = 1) ([1]; Table 7): Inactive
Growth Inhibition Activity, IC50 (μM), C. albicans (n = 3) CaCi-17 ([2]; Table 7): inactive
solubility at 24 h [3]: 62 µM (≈ 15.3 µg/mL)
Growth Inhibition Activity, IC50 (μM), C. albicans (n = 3) CaCi-2 ([4]; Table 7): inactive

CCOC(=O)N1C(=S)N(c2ccc(C)cc2)C2(CCCCC2)/C1=N/Cc1ccccc1 [compound 56604867]
Growth Inhibition Activity, IC50 (μM), 3T3 Fibroblasts (n = 1) ([1]; Table 6): Inactive
Growth Inhibition Activity, IC50 (μM), C. albicans (n = 3) CaCi-17 ([2]; Table 6): inactive
solubility at 24 h [3]: 26 µM (≈ 11.3 µg/mL)
Growth Inhibition Activity, IC50 (μM), C. albicans (n = 3) CaCi-2 ([4]; Table 6): inactive

CCOC(=O)N1C(=O)C2(CCC2)N(c2ccc(C)cc2)C1=S [compound 56604894]
Growth Inhibition Activity, IC50 (μM), 3T3 Fibroblasts (n = 1) ([1]; Table 5): Inactive
Growth Inhibition Activity, IC50 (μM), C. albicans (n = 3) CaCi-17 ([2]; Table 5): inactive
PBS Solubility ([3]; pH 7.4): 9.9 µM
Growth Inhibition Activity, IC50 (μM), C. albicans (n = 3) CaCi-2 ([4]; Table 5): Inactive

Cc1ccc(N2C(=S)N(C(=O)Oc3ccccc3)C(=O)C23CCCCC3)cc1 [compound 56604875]
Growth Inhibition Activity, IC50 (μM), 3T3 Fibroblasts (n = 1) ([1]; Table 3): Inactive
Growth Inhibition Activity, IC50 (μM), C. albicans (n = 3) CaCi-17 ([2]; Table 3): inactive
PBS Solubility [3, 6]: <1.0 µM
Growth Inhibition Activity, IC50 (μM), C. albicans (n = 3) CaCi-2 ([4]; Table 3): inactive

CCOC(=O)N1C(=O)C2(CCCCC2)N(C(C)C)C1=S [compound 56604896]
Growth Inhibition Activity, IC50 (μM), 3T3 Fibroblasts (n = 1) ([1]; Table 4): Inactive
Growth Inhibition Activity, IC50 (μM), C. albicans (n = 3) CaCi-17 ([2]; Table 4): inactive
PBS Solubility [3, 5]: 12 µM
Growth Inhibition Activity, IC50 (μM), C. albicans (n = 3) CaCi-2 ([4]; Table 4): inactive

CCOC(=O)N1C(=O)C2(CCCCC2)N(c2ccc(OC)cc2)C1=S [compound 56604819]
Growth Inhibition Activity, IC50 (μM), 3T3 Fibroblasts (n = 1) ([1]; Table 4): Inactive
Growth Inhibition Activity, IC50 (μM), C. albicans (n = 3) CaCi-17 ([2]; Table 4): inactive
PBS Solubility ([3]; pH 7.4): <1.0 µM
IC50 ([4]; Table 4): 1.8 µM

CCCOC(=O)N1C(=O)C2(CCCCC2)N(c2ccc(C)cc2)C1=S [compound 56604849]
Growth Inhibition Activity, IC50 (μM), 3T3 Fibroblasts (n = 1) ([1]; Table 3): Inactive
Growth Inhibition Activity, IC50 (μM), C. albicans (n = 3) CaCi-17 ([2]; Table 3): inactive
PBS Solubility [3, 6]: <1.0 µM
IC50 ([4]; Table 3): 1.2 µM

CC(C)N1C(=S)NC(=O)C12CCCCC2 [compound 56604820]
Growth Inhibition Activity, IC50 (μM), 3T3 Fibroblasts (n = 1) ([1]; Table 7): Inactive
Growth Inhibition Activity, IC50 (μM), C. albicans (n = 3) CaCi-17 ([2]; Table 7): inactive
solubility at 24 h [3]: 32 µM (≈ 7.24 µg/mL)
Growth Inhibition Activity, IC50 (μM), C. albicans (n = 3) CaCi-2 ([4]; Table 7): inactive

Cc1ccc(N2C(=S)NC(=O)C2(C)C)cc1 [compound 56604879]
Growth Inhibition Activity, IC50 (μM), 3T3 Fibroblasts (n = 1) ([1]; Table 7): Inactive
Growth Inhibition Activity, IC50 (μM), C. albicans (n = 3) CaCi-17 ([2]; Table 7): inactive
solubility at 24 h [3]: 55 µM (≈ 12.9 µg/mL)
Growth Inhibition Activity, IC50 (μM), C. albicans (n = 3) CaCi-2 ([4]; Table 7): inactive

CCOC(=O)N1C(=O)N(c2ccc(C)cc2)C2(CCCCC2)C1=O [compound 56604827]
Growth Inhibition Activity, IC50 (μM), 3T3 Fibroblasts (n = 1) ([1]; Table 6): Inactive
Growth Inhibition Activity, IC50 (μM), C. albicans (n = 3) CaCi-17 ([2]; Table 6): inactive
solubility at 24 h [3]: 55 µM (≈ 18.2 µg/mL)
Growth Inhibition Activity, IC50 (μM), C. albicans (n = 3) CaCi-2 ([4]; Table 6): inactive

Cc1ccc(N2C(=O)N(C)C(=O)C23CCCCC3)cc1 [compound 56604845]
Growth Inhibition Activity, IC50 (μM), 3T3 Fibroblasts (n = 1) ([1]; Table 6): Inactive
Growth Inhibition Activity, IC50 (μM), C. albicans (n = 3) CaCi-17 ([2]; Table 6): inactive
solubility at 24 h [3]: 100 µM (≈ 27.2 µg/mL)
Growth Inhibition Activity, IC50 (μM), C. albicans (n = 3) CaCi-2 ([4]; Table 6): inactive

CCCc1ccc(N2C(=S)N(C(=O)OCC)C(=O)C23CCCCC3)cc1 [compound 56604858]
Growth Inhibition Activity, IC50 (μM), 3T3 Fibroblasts (n = 1) ([1]; Table 4): Inactive
Growth Inhibition Activity, IC50 (μM), C. albicans (n = 3) CaCi-17 ([2]; Table 4): inactive
PBS Solubility ([3]; pH 7.4): <1.0 µM
IC50 ([4]; Table 4): 6.9 µM

CCOC(=O)N1C(=O)C2(CCOCC2)N(c2ccc(C)cc2)C1=S [compound 56604818]
Growth Inhibition Activity, IC50 (μM), 3T3 Fibroblasts (n = 1) ([1]; Table 5): Inactive
Growth Inhibition Activity, IC50 (μM), C. albicans (n = 3) CaCi-17 ([2]; Table 5): inactive
PBS Solubility ([3]; pH 7.4): 28.5 µM
IC50 ([4]; Table 5): 20.6 µM

CCCCN1C(=O)N(c2ccc(C)cc2)C2(CCCCC2)C1=O [compound 56604877]
Growth Inhibition Activity, IC50 (μM), 3T3 Fibroblasts (n = 1) ([1]; Table 6): Inactive
Growth Inhibition Activity, IC50 (μM), C. albicans (n = 3) CaCi-17 ([2]; Table 6): inactive
solubility at 24 h [3]: 64 µM (≈ 20.1 µg/mL)
Growth Inhibition Activity, IC50 (μM), C. albicans (n = 3) CaCi-2 ([4]; Table 6): inactive

CCOC(=O)N1C(=O)C2(CCCCC2)N(c2ccccc2C)C1=S [compound 24052146]
Growth Inhibition Activity, IC50 (μM), 3T3 Fibroblasts (n = 1) ([1]; Table 4): Inactive
IC50 ([2]; Table 4, read-out: Growth Inhibition Activity, IC50 (μM), C. albicans (n = 3) CaCi-17): 23.9 µM
PBS Solubility [3, 5]: 18 µM
IC50 ([4]; Table 4): 1.2 µM

Cc1ccc(N2CC(=O)NC2=O)cc1 [compound 759335]
Growth Inhibition Activity, IC50 (μM), 3T3 Fibroblasts (n = 1) ([1]; Table 7): Inactive
Growth Inhibition Activity, IC50 (μM), C. albicans (n = 3) CaCi-17 ([2]; Table 7): inactive
solubility at 24 h [3]: > 100 µM
Growth Inhibition Activity, IC50 (μM), C. albicans (n = 3) CaCi-2 ([4]; Table 7): inactive

Cc1ccc(N2C(=S)NC(=O)C23CCCC3)cc1 [compound 56604876]
IC50 ([1]; Mus musculus, NIH3T3, read-out: Growth Inhibition Activity, IC50 (μM), 3T3 Fibroblasts (n = 1), Table 7): 32.6 µM
Growth Inhibition Activity, IC50 (μM), C. albicans (n = 3) CaCi-17 ([2]; Table 7): inactive
solubility at 24 h [3]: 72 µM (≈ 18.7 µg/mL)
Growth Inhibition Activity, IC50 (μM), C. albicans (n = 3) CaCi-2 ([4]; Table 7): inactive
